According to patent publication US10167262B2, “Herbicidal substituted 3-arylpyrazoles” (FMC CORPORATION, priority 2014, dated 2019):

Tests used:
Assay in all cases: Test A pre-/postemergence greenhouse herbicide test, visual injury rating 0-100
Assay type in all cases: in vivo
[1] = tested on: wheat (Triticum aestivum)
Description: (§1) Seeds of plant species selected from barnyardgrass (Echinochloa crus-galli), large (Lg) crabgrass (Digitaria sanguinalis), giant foxtail (Setaria faberii), morningglory (Ipomoea spp.), pigweed (Amaranthus retroflexus), velvetleaf (Abutilon theophrasti), wheat (Triticum aestivum), and corn (Zea mays) were planted into a blend of loam soil and sand and treated preemergence with a directed soil spray using test chemicals formulated in a non-phytotoxic solvent mixture which included a surfactant. At the same time these species were also treated with postemergence applications of test chemicals formulated in the same manner. Plants ranged in height from 2 to 10 cm and were in the one- to two-leaf stage for the postemergence treatment. Treated plants and untreated controls were maintained in a greenhouse for approximately 10 days, after which time all treated plants were compared to untreated controls and visually evaluated for injury. Plant response ratings, summarized in Table A, are based on a 0 to 100 scale where 0 is no effect and 100 is complete control. A dash (-) response means no test result.

[2] = tested on: barnyardgrass (Echinochloa crus-galli)
Description: as §1

corn (Zea mays) = tested on: corn (Zea mays)
Description: as §1

[3] = tested on: large (Lg) crabgrass (Digitaria sanguinalis)
Description: as §1

[4] = tested on: giant foxtail (Setaria faberii)
Description: as §1

[5] = tested on: morningglory (Ipomoea spp.)
Description: as §1

[6] = tested on: pigweed (Amaranthus retroflexus)
Description: as §1

[7] = tested on: velvetleaf (Abutilon theophrasti)
Description: as §1

CC(=O)n1cc(C(=O)c2cncc(F)c2)c(-c2cc(Cl)cc(Cl)c2)n1 [Compound 20]
Plant response rating (0 to 100 scale), Wheat ([1]; Postemergence, 1000 g ai/ha): 0 | Plant response rating (0 to 100 scale), Wheat ([1]; Preemergence, 1000 g ai/ha): 0 | Plant response rating (0 to 100 scale), Barnyardgrass ([2]; Postemergence, 1000 g ai/ha): 0 | Plant response rating (0 to 100 scale), Barnyardgrass ([2]; Preemergence, 1000 g ai/ha): 0 | Plant response rating (0 to 100 scale), Corn (corn (Zea mays); Postemergence, 1000 g ai/ha): 0 | Plant response rating (0 to 100 scale), Corn (corn (Zea mays); Preemergence, 1000 g ai/ha): 0 | Plant response rating (0 to 100 scale), Crabgrass, Large ([3]; Postemergence, 1000 g ai/ha): 0 | Plant response rating (0 to 100 scale), Crabgrass, Large ([3]; Preemergence, 1000 g ai/ha): 0 | Plant response rating (0 to 100 scale), Foxtail, Giant ([4]; Postemergence, 1000 g ai/ha): 0 | Plant response rating (0 to 100 scale), Foxtail, Giant ([4]; Preemergence, 1000 g ai/ha): 0 | Plant response rating (0 to 100 scale), Morningglory ([5]; Postemergence, 1000 g ai/ha): 0 | Plant response rating (0 to 100 scale), Morningglory ([5]; Preemergence, 1000 g ai/ha): 0 | Plant response rating (0 to 100 scale), Pigweed ([6]; Postemergence, 1000 g ai/ha): 90 | Plant response rating (0 to 100 scale), Pigweed ([6]; Preemergence, 1000 g ai/ha): 100 | Plant response rating (0 to 100 scale), Velvetleaf ([7]; Postemergence, 1000 g ai/ha): 90 | Plant response rating (0 to 100 scale), Velvetleaf ([7]; Preemergence, 1000 g ai/ha): 80

CCn1cc(C(=O)c2cncc(F)c2)c(-c2cc(Cl)cc(Cl)c2)n1 [Compound 21]
Plant response rating (0 to 100 scale), Wheat ([1]; Postemergence, 1000 g ai/ha): 0 | Plant response rating (0 to 100 scale), Wheat ([1]; Preemergence, 1000 g ai/ha): 0 | Plant response rating (0 to 100 scale), Barnyardgrass ([2]; Postemergence, 1000 g ai/ha): 0 | Plant response rating (0 to 100 scale), Barnyardgrass ([2]; Preemergence, 1000 g ai/ha): 0 | Plant response rating (0 to 100 scale), Corn (corn (Zea mays); Postemergence, 1000 g ai/ha): 0 | Plant response rating (0 to 100 scale), Corn (corn (Zea mays); Preemergence, 1000 g ai/ha): 0 | Plant response rating (0 to 100 scale), Crabgrass, Large ([3]; Postemergence, 1000 g ai/ha): 10 | Plant response rating (0 to 100 scale), Crabgrass, Large ([3]; Preemergence, 1000 g ai/ha): 0 | Plant response rating (0 to 100 scale), Foxtail, Giant ([4]; Postemergence, 1000 g ai/ha): 0 | Plant response rating (0 to 100 scale), Foxtail, Giant ([4]; Preemergence, 1000 g ai/ha): 0 | Plant response rating (0 to 100 scale), Morningglory ([5]; Postemergence, 1000 g ai/ha): 0 | Plant response rating (0 to 100 scale), Morningglory ([5]; Preemergence, 1000 g ai/ha): 0 | Plant response rating (0 to 100 scale), Pigweed ([6]; Postemergence, 1000 g ai/ha): 100 | Plant response rating (0 to 100 scale), Pigweed ([6]; Preemergence, 1000 g ai/ha): 80 | Plant response rating (0 to 100 scale), Velvetleaf ([7]; Postemergence, 1000 g ai/ha): 90 | Plant response rating (0 to 100 scale), Velvetleaf ([7]; Preemergence, 1000 g ai/ha): 80

CON=C(c1ccccc1)c1c[nH]nc1-c1cc(Br)cc(Br)c1 [Compound 29]
Plant response rating (0 to 100 scale), Wheat ([1]; Postemergence, 1000 g ai/ha): 0 | Plant response rating (0 to 100 scale), Wheat ([1]; Preemergence, 1000 g ai/ha): 0 | Plant response rating (0 to 100 scale), Barnyardgrass ([2]; Postemergence, 1000 g ai/ha): 0 | Plant response rating (0 to 100 scale), Barnyardgrass ([2]; Preemergence, 1000 g ai/ha): 0 | Plant response rating (0 to 100 scale), Corn (corn (Zea mays); Postemergence, 1000 g ai/ha): 0 | Plant response rating (0 to 100 scale), Corn (corn (Zea mays); Preemergence, 1000 g ai/ha): 0 | Plant response rating (0 to 100 scale), Crabgrass, Large ([3]; Postemergence, 1000 g ai/ha): 0 | Plant response rating (0 to 100 scale), Crabgrass, Large ([3]; Preemergence, 1000 g ai/ha): 0 | Plant response rating (0 to 100 scale), Foxtail, Giant ([4]; Postemergence, 1000 g ai/ha): 10 | Plant response rating (0 to 100 scale), Foxtail, Giant ([4]; Preemergence, 1000 g ai/ha): 0 | Plant response rating (0 to 100 scale), Morningglory ([5]; Postemergence, 1000 g ai/ha): 0 | Plant response rating (0 to 100 scale), Morningglory ([5]; Preemergence, 1000 g ai/ha): 0 | Plant response rating (0 to 100 scale), Pigweed ([6]; Postemergence, 1000 g ai/ha): 90 | Plant response rating (0 to 100 scale), Pigweed ([6]; Preemergence, 1000 g ai/ha): 40 | Plant response rating (0 to 100 scale), Velvetleaf ([7]; Postemergence, 1000 g ai/ha): 90 | Plant response rating (0 to 100 scale), Velvetleaf ([7]; Preemergence, 1000 g ai/ha): 70

CON=C(c1cccs1)c1c[nH]nc1-c1cc(Cl)cc(Cl)c1 [Compound 32]
Plant response rating (0 to 100 scale), Wheat ([1]; Postemergence, 125 g ai/ha): 0 | Plant response rating (0 to 100 scale), Wheat ([1]; Postemergence, 500 g ai/ha): 0 | Wheat plant response rating (0 = no effect, 100 = complete control) ([1]; Preemergence, 125 g ai/ha): 0 | Plant response rating (0 to 100 scale), Wheat ([1]; Preemergence, 500 g ai/ha): 0 | Plant response rating (0 to 100 scale), Barnyardgrass ([2]; Postemergence, 125 g ai/ha): 0 | Plant response rating (0 to 100 scale), Barnyardgrass ([2]; Postemergence, 500 g ai/ha): 0 | Barnyardgrass plant response rating (0 = no effect, 100 = complete control) ([2]; Preemergence, 125 g ai/ha): 0 | Plant response rating (0 to 100 scale), Barnyardgrass ([2]; Preemergence, 500 g ai/ha): 0 | Plant response rating (0 to 100 scale), Corn (corn (Zea mays); Postemergence, 125 g ai/ha): 0 | Plant response rating (0 to 100 scale), Corn (corn (Zea mays); Postemergence, 500 g ai/ha): 0 | Corn plant response rating (0 = no effect, 100 = complete control) (corn (Zea mays); Preemergence, 125 g ai/ha): 0 | Plant response rating (0 to 100 scale), Corn (corn (Zea mays); Preemergence, 500 g ai/ha): 0 | Plant response rating (0 to 100 scale), Crabgrass, Large ([3]; Postemergence, 125 g ai/ha): 0 | Plant response rating (0 to 100 scale), Crabgrass, Large ([3]; Postemergence, 500 g ai/ha): 0 | Crabgrass, Large plant response rating (0 = no effect, 100 = complete control) ([3]; Preemergence, 125 g ai/ha): 0 | Plant response rating (0 to 100 scale), Crabgrass, Large ([3]; Preemergence, 500 g ai/ha): 0 | Plant response rating (0 to 100 scale), Foxtail, Giant ([4]; Postemergence, 125 g ai/ha): 0 | Plant response rating (0 to 100 scale), Foxtail, Giant ([4]; Postemergence, 500 g ai/ha): 0 | Foxtail, Giant plant response rating (0 = no effect, 100 = complete control) ([4]; Preemergence, 125 g ai/ha): 0 | Plant response rating (0 to 100 scale), Foxtail, Giant ([4]; Preemergence, 500 g ai/ha): 0 | Plant response rating (0 to 100 scale), Morningglory ([5]; Postemergence, 125 g ai/ha): 0 | Plant response rating (0 to 100 scale), Morningglory ([5]; Postemergence, 500 g ai/ha): 0 | Morningglory plant response rating (0 = no effect, 100 = complete control) ([5]; Preemergence, 125 g ai/ha): 0 | Plant response rating (0 to 100 scale), Morningglory ([5]; Preemergence, 500 g ai/ha): 0 | Plant response rating (0 to 100 scale), Pigweed ([6]; Postemergence, 125 g ai/ha): 0 | Plant response rating (0 to 100 scale), Pigweed ([6]; Postemergence, 500 g ai/ha): 60 | Pigweed plant response rating (0 = no effect, 100 = complete control) ([6]; Preemergence, 125 g ai/ha): 0 | Plant response rating (0 to 100 scale), Velvetleaf ([7]; Postemergence, 125 g ai/ha): 60 | Plant response rating (0 to 100 scale), Velvetleaf ([7]; Postemergence, 500 g ai/ha): 70 | Velvetleaf plant response rating (0 = no effect, 100 = complete control) ([7]; Preemergence, 125 g ai/ha): 0 | Plant response rating (0 to 100 scale), Velvetleaf ([7]; Preemergence, 500 g ai/ha): 0
